Laboratory results published in US20230391727A1, “ANALOGUES OF PENTAMIDINE AND METHODS FOR TREATING INFECTIONS” (Auransa Inc., priority 2020, published 2023).
Read-outs that look alike come from different tables or passages of the source.

Assays:
Assay in all cases: Anti-fungal MIC assay
Assay type in all cases: cell-based
[1] = test system: Aspergillus fumigatus AF3
Description: (§1) The first round of testing included Candida parapsilosis, Candida krusei, Paecilomyces variotii, Candida albicans, Aspergillus fumigatus, and Blastomyces dermatitidis. […] The second round of testing included Candida parapsilosis, Candida krusei, Candida albicans, Candida auris, Candida glabrata, Candida guilliermondii, and Cryptococcus neoformans.
(§2) Stock solutions of the investigational agent were prepared at concentrations 100-times the highest concentration to be tested (6400 μg/ml) using dimethyl sulfoxide. Aliquots of the stock solutions were dispensed into polystyrene vials and stored at −20° C.
(§3) The synthetic medium RPMI-1640 (with glutamine, without bicarbonate, and with phenol red) was used. The RPMI was buffered to a pH of 7.0+0.1 at 25° C. with 0.165M MOPS (3-[N-morpholino] propanesulfonic acid). Sterile U-shaped 96-well cell culture plates were used to perform the MIC assays. Dilutions of the DMSO stocks were prepared in RPMI to achieve 2× concentrations. After the dilutions of the working 2× investigational antifungal solutions were prepared, 0.1 ml of each concentration was transferred into a pre-specified column of the U-shaped 96-well cell culture plate using sterile pipettes.
(§4) Fungal isolates were grown on Sabouraud dextrose agar (yeasts) or potato flake agar (filamentous fungi) and cells were collected after an appropriate period of growth for each species being evaluated (e.g., 48-72 hours for yeasts and 7 days for filamentous fungi). The fungi were suspended in sterile distilled water, and the densities of the fungal suspension were read using a spectrophotometer and adjusted to an appropriate optical density specific for each fungal species. The fungal suspension of each isolate was then diluted in RPMI. A sufficient volume of the test inoculum was prepared to directly inoculate 0.1 ml into each test well of the 96-well cell culture plate. Final inoculum ranges were dependent on the fungal species to be tested (e.g., 0.4×103 to 5×10^3 cells/ml for yeasts and dimorphic fungi, and 0.4×104 to 5×10^4 cells/ml for filamentous fungi). Each well of the 96-well cell culture plate containing the investigational antifungal compounds (0.1 ml volume) was inoculated on the day of the assay with 0.1 ml of the fungal suspension. Growth control wells contained 0.1 ml of fungal suspension and 0.1 ml of the growth medium without antifungal agents. The media control well contained 0.2 ml of the growth medium.
(§5) The microdilution trays were incubated at 35° C. without agitation. […] One positive comparator/control was used for yeast (fluconazole) and one was used for filamentous fungi (voriconazole).

[2] = test system: Blastomyces dermatitidis BD1
Description: as §1, §2, §3, §4, §5

[3] = test system: Blastomyces dermatitidis BD2
Description: as §1, §2, §3, §4, §5

[4] = test system: Blastomyces dermatitidis BD3
Description: as §1, §2, §3, §4, §5

[5] = test system: Candida albicans ATCC90028
Description: as §1, §2, §3, §4, §5

[6] = test system: Candida albicans CA3
Description: as §1, §2, §3, §4, §5

[7] = test system: Candida albicans SC5314
Description: as §1, §2, §3, §4, §5

[8] = test system: Candida auris DI17-46; conditions: Candidozyma auris
Description: as §1, §2, §3, §4, §5

[9] = test system: Candida auris DI17-48; conditions: Candidozyma auris
Description: as §1, §2, §3, §4, §5

[10] = test system: Candida glabrata 05-62
Description: as §1, §2, §3, §4, §5

[11] = test system: Candida glabrata 05-761
Description: as §1, §2, §3, §4, §5

[12] = test system: Candida glabrata CG3; conditions: Nakaseomyces glabratus
Description: as §1, §2, §3, §4, §5

[13] = test system: Candida guilliermondii Cgui1; conditions: Meyerozyma guilliermondii
Description: as §1, §2, §3, §4, §5

[14] = test system: Candida guilliermondii Cgui2; conditions: Meyerozyma guilliermondii
Description: as §1, §2, §3, §4, §5

[15] = test system: Candida guilliermondii Cgui3; conditions: Meyerozyma guilliermondii
Description: as §1, §2, §3, §4, §5

[16] = test system: Candida krusei ATCC6258; conditions: Pichia kudriavzevii
Description: as §1, §2, §3, §4, §5

[17] = test system: Candida parapsilosis ATCC22019; conditions: Lodderomyces parapsilosis
Description: as §1, §2, §3, §4, §5

[18] = test system: Candida parapsilosis CP1
Description: as §1, §2, §3, §4, §5

[19] = test system: Candida parapsilosis CP2; conditions: Lodderomyces parapsilosis
Description: as §1, §2, §3, §4, §5

[20] = test system: Cryptococcus neoformans H99
Description: as §1, §2, §3, §4, §5

[21] = test system: Cryptococcus neoformans USC 1597
Description: as §1, §2, §3, §4, §5

[22] = test system: Paecilomyces variotii MYA-3630
Description: as §1, §2, §3, §4, §5

[23] = read-out: MIC, 50% growth inhibition
[24] = read-out: MIC, 100% growth inhibition

Measured: MIC

N=C(N)c1ccc(CC[C@H]2CCC[C@@H](CCc3ccc(C(=N)N)cc3)C2)cc1 [Compound 3, 4,4′-(2,2′-((1R,3S)-cyclohexane-1,3-diyl)bis(ethane-2,1-diyl))dibenzimidamide]
8 µg/mL: [2]; [24] | [4]; [24] | [16]; ATCC6258, Candida krusei ATCC6258, first round (Table 5), read-out: MIC, 50% growth inhibition | [16]; ATCC6258, read-out: MIC, 100% growth inhibition, Candida krusei ATCC6258, first round (Table 5) | [18]; [24]
0.25 µg/mL: [17]; ATCC22019, C. parapsilosis ATCC 22019, second round (Table 6), read-out: MIC, 50% growth inhibition
2 µg/mL: [3]; [23] | [8]; DI1746, read-out: MIC, 50% growth inhibition | [9]; DI1748, read-out: MIC, 50% growth inhibition | [10]; Nakaseomyces glabratus, 0562, read-out: MIC, 50% growth inhibition | [11]; Nakaseomyces glabratus, 05761, read-out: MIC, 100% growth inhibition | [14]; [23] | [14]; [24] | [15]; [23] | [15]; [24]
0.5 µg/mL: [5]; [23] | [12]; [23] | [16]; ATCC6258, C. krusei ATCC 6258, second round (Table 6), read-out: MIC, 50% growth inhibition | [17]; ATCC22019, Candida parapsilosis ATCC22019, first round (Table 5), read-out: MIC, 50% growth inhibition | [17]; ATCC22019, read-out: MIC, 100% growth inhibition, C. parapsilosis ATCC 22019, second round (Table 6) | [20]; [23] | [20]; [24] | [21]; USC1597, read-out: MIC, 50% growth inhibition | [21]; USC1597, read-out: MIC, 100% growth inhibition
64 µg/mL: [1]; [24]
4 µg/mL: [2]; [23] | [3]; [24] | [4]; [23] | [8]; DI1746, read-out: MIC, 100% growth inhibition | [9]; DI1748, read-out: MIC, 100% growth inhibition | [10]; Nakaseomyces glabratus, 0562, read-out: MIC, 100% growth inhibition | [19]; [24]
1 µg/mL: [5]; [24] | [6]; [23] | [6]; [24] | [7]; [23] | [7]; [24] | [11]; Nakaseomyces glabratus, 05761, read-out: MIC, 50% growth inhibition | [12]; [24] | [13]; [23] | [13]; [24] | [16]; ATCC6258, read-out: MIC, 100% growth inhibition, C. krusei ATCC 6258, second round (Table 6) | [17]; ATCC22019, read-out: MIC, 100% growth inhibition, Candida parapsilosis ATCC22019, first round (Table 5) | [18]; [23] | [19]; [23] | [22]; MYA3630, read-out: MIC, 50% growth inhibition | [22]; MYA3630, read-out: MIC, 100% growth inhibition
32 µg/mL: [1]; [23]
